Laboratory results reported in US20170362283A1, “NISIN-BASED COMPOUNDS AND USE THEREOF IN THE TREATMENT OF BACTERIAL INFECTIONS” (UNIVERSITEIT UTRECHT HOLDING B.V., priority 2015, published 2017).
In brackets after ≈: the same amount, converted by molar mass.

How the values were obtained:
MRSA WKZ2 = type: cell-based, Staphylococcus aureus; settings: duplicate experiments
Protocol: (§1) Determining the MIC value is a standard technique well known to the skilled person, in particular the MIC value can be measured using method M07-A9 (CLSI standard, January 2012, Vol. 32, No. 2, “Methods for Dilution Antimicrobial Susceptibility Tests for Bacteria That Grow Aerobically”).
(§2) Different microorganisms (from glycerol stock) were plated out on blood agar and incubated at 37° C. for 24 hours. A colony was selected and 2×5 mL of TSB was inoculated. The samples and a sterile control were cultured for 16-20 hours at 37° C. Comparative compound B is nisin acting as a control. Comparative compound C is vancomycin, also acting as a control. Comparative compounds A, D and E are also control compounds not part of the present invention.
(§3) The overnight cultures were diluted to 0.5×10^6 CFU in TSB. 50 μL of the bacterial solution was added to each well and the plates were sealed with an adhesive membrane and incubated at 37° C. for 16 hours. The next day, the plates were visually inspected for bacterial growth.

MRSA USA300 = type: cell-based, Staphylococcus aureus; settings: duplicate experiments
Protocol: as §1, §2, §3

B. subtilis = settings: duplicate experiments
Protocol: as §1
as §2, with “Comparative compound C is vancomycin, also acting as a control.” left out
as §3

S. aureus = settings: duplicate experiments
Protocol: as §1
as §2, with “Comparative compound C is vancomycin, also acting as a control.” left out
as §3

E. coli = settings: duplicate experiments
Protocol: as §1
as §2, with “Comparative compound C is vancomycin, also acting as a control.” left out
as §3

M. luteus = type: cell-based; settings: duplicate experiments
Protocol: as §1, §2, §3

VRE 155 = type: cell-based; settings: duplicate experiments
Protocol: as §1, §2, §3

erythrocytes = experiment: Hemolysis assay; settings: human erythrocytes, 1 h, up to the highest concentration tested (64 μg/mL)
Protocol: Human whole blood was centrifuged at 600×g for 15 min and levels of plasma and hematocrit were marked on the tube. Plasma was removed and the erythrocytes washed 3× with PBS (centrifuging at 600×g for 15 mins). After discarding the supernatant, the packed cells were stored on ice. 100 μL of the peptides (128 μg/mL in PBS, 2% DMSO) as well as a control solution comprised of 2% DMSO in PBS were added to the top row of a polypropylene, round-bottom 96 well plate and 50 μL of PBS to the rest of the wells. The peptides and the DMSO control solutions were then diluted serially down the rows. 200 μL of the packed cells were added to PBS (10 mL) and 50 μL of this suspension was added to each well. A column with DI water containing 0.1% Triton X-100 was used as the 100% lysis control, and the column containing the serially-diluted PBS (1.0% DMSO) control served as the 0% lysis reference. The cells were incubated at 37° C. for 1 h. After incubation the plates were centrifuged (800×g, 5 min) and 25 μL of the supernatant was added to 100 μL DI water in a flat-bottom plate (polystyrene). The absorption at 414 nm was recorded to measure the amount of free hemoglobin.

Serum stability = type: in vitro ADME; settings: human serum, 37° C., after 24 hours; read-out: stability in human serum, remained intact
Protocol: 2 mg/mL peptide solutions were prepared in 26% DMSO in MilliQ. Duplicate samples were prepared with […] peptide solution and […] human serum, making the final DMSO concentration 2%. The samples were incubated at 37° C., and samples were taken at t=0, 1, 2, 4 and 24 hours as follows: to 100 μL serum solution, 200 μL MeOH (containing 0.075 mg/mL ethylparaben as an internal standard) was added to precipitate the proteins. The sample was vortexed briefly and allowed to stand for 10 min at RT. The samples were then centrifuged at 13,000 rpm for 5 min, and the supernatant was taken and stored at −20° C. until analysis. Each sample was analyzed by HPLC on a C4 column. The peaks were integrated and normalized to the internal standard.

| SMILES | MIC values MRSA WKZ2 (MRSA WKZ2) | MIC values MRSA USA300 (MRSA USA300) | MIC values B. subtilis (B. subtilis) | MIC values S. aureus (S. aureus) | MIC values E. coli (E. coli) | MIC values M. luteus (M. luteus) | MIC values VRE 155 (VRE 155) | hemolysis (erythrocytes) | remaining at 24 h, 0.15 mg/mL (Serum stability) |
| --- | --- | --- | --- | --- | --- | --- | --- | --- | --- |
| C=C1NC(=O)[C@H]([C@@H](C)CC)NC(=O)[C@H](NC(=O)C(=CC)NC(=O)[C@@H](N)[C@@H](C)CC)CSC[C@@H](C(=O)N[C@H]2C(=O)N3CCC[C@H]3C(=O)NCC(=O)N[C@H](C(=O)N[C@@H](CCCCN)C(=O)O)CS[C@H]2C)NC(=O)[C@H](CC(C)C)NC1=O [Compound A, nisin [1-12], reference compound] | >128 µg/mL | >128 µg/mL | >128 µg/mL | >128 µg/mL | >128 µg/mL | 8 to 16 µg/mL | >128 µg/mL |  |  |
| C=C1NC(=O)[C@H]([C@@H](C)CC)NC(=O)[C@H](NC(=O)C(=CC)NC(=O)[C@@H](N)[C@@H](C)CC)CSC[C@@H](C(=O)N[C@H]2C(=O)N3CCC[C@H]3C(=O)NCC(=O)N[C@H](C(=O)N[C@@H](CCCCNC(C)=O)C(=O)NCCCCCCCCCCCC)CS[C@H]2C)NC(=O)[C@H](CC(C)C)NC1=O [Compound (20)] |  | >64 µg/mL |  |  |  |  | 4 µg/mL (≈ 2.94 µM) | no detectable hemolysis |  |
| C=C1NC(=O)[C@H]([C@@H](C)CC)NC(=O)[C@H](NC(=O)C(=CC)NC(=O)[C@@H](N)[C@@H](C)CC)CSC[C@@H](C(=O)N[C@H]2C(=O)N3CCC[C@H]3C(=O)NCC(=O)N[C@H](C(=O)N[C@@H](CCCCN)C(=O)NCCCCCCCCCC)CS[C@H]2C)NC(=O)[C@H](CC(C)C)NC1=O [(6)] | 16 µg/mL (≈ 12.4 µM) | 16 µg/mL (≈ 12.4 µM) | 4 to 8 µg/mL | 16 µg/mL (≈ 12.4 µM) | 64 µg/mL (≈ 49.6 µM) | 2 µg/mL (≈ 1.55 µM) | 8 µg/mL (≈ 6.2 µM) |  | 94% |
| C=C1NC(=O)[C@H]([C@@H](C)CC)NC(=O)[C@H](NC(=O)C(=CC)NC(=O)[C@@H](N)[C@@H](C)CC)CSC[C@@H](C(=O)N[C@H]2C(=O)N3CCC[C@H]3C(=O)NCC(=O)N[C@H](C(=O)N[C@@H](CCCCN)C(=O)NC/C=C(\C)CC/C=C(\C)CCC=C(C)C)CS[C@H]2C)NC(=O)[C@H](CC(C)C)NC1=O [(12)] | 16 µg/mL (≈ 11.8 µM) | 16 µg/mL (≈ 11.8 µM) | 4 µg/mL (≈ 2.95 µM) | 8 µg/mL (≈ 5.91 µM) | >64 µg/mL | 2 µg/mL (≈ 1.48 µM) | 8 µg/mL (≈ 5.91 µM) |  | > 50% |
